According to patent publication US7507792B2, “MDA-7 proteins and methods of use thereof” (The Trustees of Columbia University In The City of New York, priority 1993, dated 2009):
“Also recorded” adds a separate entry of the source.

Key:
Type in all cases: cell-based, human
mda-6 = mda-6 expression (Northern blotting)
Method: (§1) The mass excision of the library was performed using ExAssist helper phage as described above. The SOLR strain of Escherichia coli and cDNA phagemids were mixed at 37° C. for 15 min and plated onto LB plates containing ampicillin and IPTG/X-gal. White colonies were chosen at random, isolated and grown in LB medium. Plasmid minireps and restriction enzyme digestions were performed to confirm the presence of inserts. The inserts were isolated and used as robes for Northern blotting analysis (5,25). […] Radiolabeled probes were generated by random oligonucleotide priming (25). Prehybridization, hybridization, posthybridization washes, and autoradiography were performed as described (5,18,25).
Total cytoplasmic RNA was isolated and Northern blotting hybridization was performed as described (Reddy et al., 1991; Su et al., 1991; Jiang et al., 1992). Ten μg of RNA was denatured with glyoxal/DMSO, electrophoresed on 1.0% agarose gels, transferred to nylon membranes and hybridized to a ^32P-labeled p53 probe (Baker et al., 1990). The nylon membrane was stripped and hybridized to a ^32P-labeled mda-6 probe (Jiang and Fisher, 1993) and then after a second stripping the membrane was hybridized to a ^32P-labeled rat GAPDH probe (Fort et al., 1985), as described previously (Reddy et al., 1991; Su et al., 1991; Jiang et al., 1992). Following hybridization, the filters were washed and exposed for autoradiography (Reddy et al., 1991; Su et al., 1991; Jiang et al., 1992). mda-6 and GAPDH gene expression were also determined by reverse transcription-polymerase chain reaction (RT-PCR) as described (Adollahi et al., 1991; Lin et al., 1994; Jiang et al., 1994b). Total cytoplasmic RNA was treated with 0.5 units DNase (Boehringer-Mannheim Biochemicals)/μg RNA in 15% glycerol, 10 mM Tris, pH 7.5, 2.5 mM MgCl2, 0.1 mM EDTA, 80 mM KCl, 1 mM CaCl2 and 1 unit/ml RNasin (Promega) at 30° C. for 10 min. RNA was extracted with phenol-chloroform, precipitated with sodium acetate/ethanol and RNA pellets were resuspended in diethylpyrocarbonate-treated H2O. One μg of total RNA was reverse transcribed with 200 units of murine leukemia virus reverse transcriptase (Bethesda Research Laboratories) in 20 μl containing 1 mM deoxyribonucleotide triphosphates, 4 mM MgCl2, 10 mM Tris, pH 8.3, 50 mM KCl, 0.001% gelatin and 0.2 μg oligo-dT primer. Samples were adjusted to 100 μl with buffer containing 0.2 mM deoxyribonucleotide triphosphates, 2 mM MgCl2, 10 mM Tris, pH 8.3, 50 mM KCl and 0.001% gelatin. Fifty pmol of each primer, 1.5 units Taq DNA polymerase (Perkin-Elmer Cetus) were added and samples were covered with mineral oil, heated at 95° C. for 5 min and subjected to 25 cycles of PCR in a Perkin-Elmer Thermal Cycler using 1 min denaturation at 94° C., 2 min annealing at 55° C. and 3 min polymerization at 72° C. After extraction with chloroform, 20 μl of products were electrophoresed, blotted onto nylon filters and hybridized with an mda-6 or GAPDH specific probe. The mda-6 primers were 5′ to 3′ […] (SEQ ID NO:26) and […] (SEQ ID NO:27)(corresponding to nt 1527 to 1546) (GenBank accession number U09579); and the GAPDH primers were 5′ to 3′ […] (SEQ ID NO:28)and […] (SEQ ID NO:29)(corresponding to nt 1070 to 1053) (Tokunaga et al., 1987).

mda-7 = mda-7 expression (Northern blotting, RT-PCR); conditions: for mda-7 expression: H0-1
Method: as §1

[1] = tested on: MDA-6 (WAF1/CIP1/SDI1) protein; assay: Immunoprecipitation of MDA-6 (WAF1/CIP1/SDI1) protein in HL-60 cells; conditions: TPA, DMSO (1%) or RA (1 μM), 12, 24, 48 and 72 h tested
Method: Immunoprecipitation analyses were performed as described previously (Duigou et al., 1991; Su et al. 1993). Logarithmically growing HL-60 cells were either untreated or treated for 12, 24, 48 or 72 h with TPA ([…]), RA (1 μM) or DMSO (1%) in 10-cm plates. Cultures were starved of methionine for 1 h at 37° C. in methionine-free medium, cells were concentrated by pelleting and labeled for 4 h at 37° C. in 1 ml of the same medium with 100 μCi of [^35S] (NEN; Express ^35S). After labeling, the cells were washed twice with ice-cold phosphate-buffered saline and lysed for 1 h on ice by the addition of RIPC (20 mM Tris-base, pH 7.5, 500 mM NaCl, 0.05% Nonidet P-40, 100 μg/ml phenylmethylsulfonyl fluoride and 0.02% sodium azide). The lysate was clarified by centrifugation in an Eppendorf microfuge at 10,000×g for 10 min at 4° C. Samples containing 4×10^6 counts were incubated with 2 μg of WAF1/CIP1 (C-19) (Santa Cruz Biotechnology) (or MDA-6 peptide-derived) rabbit polyclonal IgG or actin monoclonal antibody (Oncogene Sciences) with rocking at 4° C. for 24 h. The next day, 30 μl (packed volume) of protein G-agarose (Oncogene Sciences) was added to each tube, and incubation with rocking at 4° C. continued for another hour. The protein G pellets were then washed five times with 1 ml of ice-cold RIPC:phosphate-buffered saline (1:1, v/v). Thirty μl of sodium dodecyl sulfate-polyacrylamide gel electrophoresis buffer were added to the pellets, and the sample was heated at 87° C. for 3 min. The samples were loaded onto an 10% polyacrylamide gel and run overnight at 40 V. The gel contained Rainbow protein markers (Amersham) for sizing. Gels were fixed with 10% acetic acid plus 10% methanol for 30 min, incubated in DMSO for 30 min, incubated with 10% 2,5-diphenyloxazole in DMSO for 30 min, washed three times with cold water (10 min each), dried and exposed to film.

[2] = H0-1, 96 hours, doses of FIG. 15 legend
[3] = 96 hours, doses of FIG. 15 legend
[4] = terminally differentiated HL-60 cells, TPA for 2 days, RA for 4 days

SMILES | mda-6 expression (mda-6; H0-1, 24 hours, doses of FIG. 19, phenyl butyrate 24 hours, 4 or 7 days) | mda-6 expression (mda-6; [2]) | mda-7 expression (mda-7; 24 hours, doses of FIG. 19, phenyl butyrate 24 hours, 4 days or 7 days) | mda-7 expression (mda-7; [3]) | mda-7 expression (RT-PCR) (mda-7; LAN human neuroblastoma cells, 5 days) | mda-7 expression (RT-PCR) (mda-7; [4]) | time of treatment at which MDA-6 protein is detected [1] [h] | mda-6 expression (mda-6; human histiocytic lymphoma, U-937, cells, differentiation and growth arrest) | mda-7 expression (RT-PCR) (mda-7; HL-60 and U-937 cells)
C=C(C)[C@@]12O[C@@]3(c4ccccc4)O[C@@H]1[C@@H]1[C@@H]4O[C@]4(CO)[C@@H](O)[C@]4(O)C(=O)C(C)=C[C@H]4[C@@]1(O3)[C@H](C)[C@H]2OC(=O)/C=C/C=C/c1ccccc1 [MEZ, mezerein] | increased expression; also recorded: smaller induction of mda-6 expression | no significant or reduced alteration in expression | increased mda-7 expression | Increased expression | – | – | – | – | –
CC1=C(/C=C/C(C)=C/C=C/C(C)=C/C(=O)O)C(C)(C)CCC1 [RA, trans-retinoic acid] | – | no significant or reduced alteration in expression | – | does not induce growth changes or induce mda-7 expression | not induced | persists | 12 | – | –
CCCCCCCCCCCCCC(=O)O[C@@H]1[C@@H](C)[C@@]2(O)[C@@H](C=C(CO)C[C@]3(O)C(=O)C(C)=C[C@@H]23)[C@@H]2C(C)(C)[C@]12OC(C)=O [TPA, 12-O-tetradecanoyl-phorbol-13-acetate] | – | – | – | – | – | persists | 12 | induced | induced
